Assays:
[1] = Particle size of EPO mRNA-encapsulating lipid nanoparticles; assay type: physicochemical; settings: LNP with neutral lipid DSPC; mixed solution PBS; Lipid/Nucleic acid (wt/wt) 20
Protocol: (§1) The compounds described in Table 1, the neutral lipid, cholesterol (product name: Cholesterol HP; NIPPON FINE CHEMICAL CO., LTD.), and 1,2-dimyristoyl-rac-glycero-3-(methylpolyoxyethylene 2000) (hereinafter, called DMG-PEG2000) (product name: SUNBRIGHT® GM-020; NOF corporation) were dissolved in ethanol at a molar ratio of ionized lipid:neutral lipid:cholesterol:DMG-PEG2000=50:10:38.5:1.5 mol % such that the total lipid concentration was 12.5 mmol/L, to obtain an oil phase.
(§2) As the neutral lipid, 1,2-distearoyl-sn-glycero-3-phosphocholine (product name: COATSOME® MC-8080; NOF corporation) (hereinafter, DSPC), or L-α-dioleoylphosphatidylethanolamine (hereinafter, DOPE) (product name: COATSOME® MC-8181; NOF corporation) was used.
(§3) EPO mRNA (product name: CleanCap EPO mRNA (5 moU); TriLink) was diluted with 50 mmol/L citrate buffer having a pH 4.0 such that the weight ratio of total lipid concentration to mRNA concentration is about 20:1 to 64:1, thereby obtaining a water phase. Then, the water phase and the oil phase were mixed together using NanoAssemblr (Precision NanoSystems) such that the volume ratio of water phase:oil phase was 3:1. The mixed solution was diluted 2-fold with any of phosphate buffered physiological saline (PBS), water, or a 20 mmol/L Tris buffer solution (pH 7.4) to obtain a dispersion liquid of mRNA lipid nanoparticles. The dispersion liquid was dialyzed with 20 mmol/L Tris buffer solution (pH 7.4) containing 8% sucrose using a dialysis cassette (Slide-A-Lyzer G2, MWCO: 10 kD, Thermo Fisher Scientific) to remove ethanol, thereby obtaining EPO mRNA-encapsulating lipid nanoparticles.
The particle size of the mRNA-encapsulating lipid nanoparticles was measured by 5-fold diluting the dispersion liquid of lipid nanoparticle with phosphate buffered physiological saline (PBS) using a particle size measurement device NanoSaqla (Otsuka Electronics Co., Ltd.).

EPO mRNA = experiment: mRNA encapsulation rate of mRNA lipid nanoparticles; assay type: physicochemical; settings: LNP with neutral lipid DSPC; mixed solution PBS; Lipid/Nucleic acid (wt/wt) 20
Protocol: as §1, §2, §3
EPO mRNA was diluted with MilliQ water to prepare a diluted sample in 2-fold dilution series from 100 µg/mL to […], and a calibration curve solution was prepared. 50 μL of the calibration curve solution or the mRNA lipid nanoparticles was mixed with 450 μL of methanol to prepare a measurement solution.
The absorbance of each measurement solution at 260 nm and 330 nm was measured using a UV plate reader (Multiskan Go, Thermo Fisher Scientific), the absorbance at 330 nm was subtracted from the absorbance at 260 nm, and the result was defined as the absorbance of each measurement solution. The total […] nucleic acid concentration was calculated from the calibration curve using the absorbance of each sample measurement solution.
The concentration of the outer water phase nucleic acid was quantified by a standard addition method using a QuanT-iT RiboGreen RNA Assay Kit (Thermo Fisher Scientific). First, a 20× TE buffer included in the above kit was diluted with water, thereby obtaining a 1×TE buffer. TE represents Tris/EDTA (ethylenediaminetetraacetic acid). EPO mRNA was diluted with a TE buffer such that the final concentration was 0 to 400 ng/mL to prepare a nucleic acid diluted series. 10 μL of mRNA lipid nanoparticles diluted 5-fold with TE buffer and 90 µL of a nucleic acid dilution series were mixed in a 96-well plate, 100 μL of a Ribogreen reagent diluted 200-fold with TE buffer was added to each well, and then fluorescence (excitation wavelength: 485 nm, fluorescence wavelength: 535 nm) was measured using a fluorescence plate reader (Infinite 200 Pro M nano+, TECAN). From the obtained results, the outer water phase nucleic acid concentration of each measurement solution was calculated according to the standard addition method.
By using the quantification results of the total mRNA concentration and the mRNA concentration in the outer water phase that were obtained through the above steps, the mRNA encapsulation rate of the mRNA lipid nanoparticles was calculated according to the following Equation. […]

ICR mice = experiment: EPO protein expression in mice after intravenous EPO mRNA lipid nanoparticles; assay type: in vivo; settings: mRNA 0.1 mg/kg, plasma 6 hours after administration, neutral lipid DSPC, Lipid/Nucleic acid (wt/wt) 20, Comparative Example 1 is 1
Protocol: as §1, §2, §3
The dispersion liquid of mRNA lipid nanoparticles prepared in above <Preparation of EPO mRNA-encapsulating lipid nanoparticles> was intravenously administered to ICR mice at a mRNA dosage of 0.1 mg/kg. 6 hours after the administration, blood was collected from the caudal vena cava, thereby obtaining plasma. The human EPO […] was quantified by using the obtained blood plasma and Erythropoietin (EPO) Human Elisa Kit (Abcam.plc). The quantitative value is described as a relative amount of EPO protein in a case where Comparative Example 1 is 1.

| Particle size (nm) [1] | Nucleic acid encapsulation rate (%) (EPO mRNA) | Compound | Relative amount of EPO protein (to Comparative Example 1) (ICR mice) |
| --- | --- | --- | --- |
| 90 nm | 96% | CCCCCCCN(CCCCCC(=O)OCC(CCCCC)CCCCC)C(=O)OCCN(CCCN(CC)CC)CCOC(=O)N(CCCCCCC)CCCCCC(=O)OCC(CCCCC)CCCCC [Example 48, Bis(2-pentylheptyl) 12-(3-(diethylamino)propyl)-7,17-diheptyl-8,16-dioxo-9,15-dioxa-7,12,17-triazatricosanedioate] | 2.26 |
| 126 nm | 94% | CCCCCC(CCCCC)COC(=O)CCCCCN(CCCCC)C(=O)OCCN(CCCN(CC)CC)CCOC(=O)N(CCCCC)CCCCCC(=O)OCC(CCCCC)CCCCC [Example 49, bis(2-pentylheptyl) 12-(3-(diethylamino)propyl)-8,16-dioxo-7,17-dipentyl-9,15-dioxa-7,12,17-triazatricosanedioate] | 1.12 |
| 82 nm | 96% | CCCCCCCCN(CCCCCC(=O)OCC(CCCCC)CCCCC)C(=O)OCCN(CCOC(=O)N(CCCCCCCC)CCCCCC(=O)OCC(CCCCC)CCCCC)CCN(CC)CC [Example 50, bis(2-pentylheptyl) 12-(2-(diethylamino)ethyl)-7,17-dioctyl-8,16-dioxo-9,15-dioxa-7,12,17-triazatricosanedioate] | 1.55 |
| 93 nm | 94% | CCCCCCCCN(CCCCCC(=O)OCC(CCCCC)CCCCC)C(=O)OCCN(CCCN(CC)CC)CCOC(=O)N(CCCCCCCC)CCCCCC(=O)OCC(CCCCC)CCCCC [Example 51, Bis(2-pentylheptyl) 12-(3-(diethylamino)propyl)-7,17-dioctyl-8,16-dioxo-9,15-dioxa-7,12,17-triazatricosanedioate] | 2.88 |

More lines, now with the values behind:

| Compound | Particle size (nm) [1] | Nucleic acid encapsulation rate (%) (EPO mRNA) | Relative amount of EPO protein (to Comparative Example 1) (ICR mice) |
| --- | --- | --- | --- |
| CCCCCCCCN(CCCCC(=O)OCC(CCCCC)CCCCC)C(=O)OCCN(CCCCN(CC)CC)CCOC(=O)N(CCCCCCCC)CCCCC(=O)OCC(CCCCC)CCCCC [Example 36, Bis(2-pentylheptyl) 11-(4-(diethylamino)butyl)-6,16-dioctyl-7,15-dioxo-8,14-dioxa-6,11,16-triazahenicosanedioate] | 145 nm | 93% | 6.40 |
| CCCCCCCCN(CCCCC(=O)OCC(CCCCCC)CCCCCC)C(=O)OCCN(CCCN(CC)CC)CCOC(=O)N(CCCCCCCC)CCCCC(=O)OCC(CCCCCC)CCCCCC [Example 37, Bis(2-hexyloctyl) 11-(3-(diethylamino)propyl)-6,16-dioctyl-7,15-dioxo-8,14-dioxa-6,11,16-triazahenicosanedioate] | 136 nm | 93% | 11.39 |
| CCCCCCCCN(CCCCC(=O)OCC(CCCCCC)CCCCCC)C(=O)OCCN(CCCCN(CC)CC)CCOC(=O)N(CCCCCCCC)CCCCC(=O)OCC(CCCCCC)CCCCCC [Example 38, bis(2-hexyloctyl) 11-(4-(diethylamino)butyl)-6,16-dioctyl-7,15-dioxo-8,14-dioxa-6,11,16-triazahenicosanedioate] | 137 nm | 93% | 9.99 |
| CCCCCCCCN(CCCCC(=O)OCCCCCCC)C(=O)OCCN(CCOC(=O)N(CCCCCCCC)CCCCC(=O)OCC(CCCCCC)CCCCCC)CCN(CC)CC [Example 40, 1-Heptyl 21-(2-hexyloctyl) 11-(2-(diethylamino)ethyl)-6,16-dioctyl-7,15-dioxo-8,14-dioxa-6,11,16-triazahenicosanedioate] | 162 nm | 74% | 8.10 |
| CCCCCCCCOC(=O)CCCCN(CCCCCCCC)C(=O)OCCN(CCOC(=O)N(CCCCCCCC)CCCCC(=O)OCC(CCCCCC)CCCCCC)CCN(CC)CC [Example 42, 1-(2-Hexyloctyl) 21-octyl 11-(2-(diethylamino)ethyl)-6,16-dioctyl-7,15-dioxo-8,14-dioxa-6,11,16-triazahenicosanedioate] | 154 nm | 82% | 6.39 |
| CCCCCCCN(CCCCCC(=O)OCC(CCCCC)CCCCC)C(=O)OCCN(CCOC(=O)N(CCCCCCC)CCCCCC(=O)OCC(CCCCC)CCCCC)CCN(CC)CC [Example 45, Bis(2-pentylheptyl) 12-(2-(diethylamino)ethyl)-7,17-diheptyl-8,16-dioxo-9,15-dioxa-7,12,17-triazatricosanedioate] | 84 nm | 95% | 2.19 |
| CCCCCC(CCCCC)COC(=O)CCCCCN(CCCCC)C(=O)OCCN(CCOC(=O)N(CCCCC)CCCCCC(=O)OCC(CCCCC)CCCCC)CCN(CC)CC [Example 46, Bis(2-pentylheptyl) 12-(2-(diethylamino)ethyl)-8,16-dioxo-7,17-dipentyl-9,15-dioxa-7,12,17-triazatricosanedioate] | 104 nm | 93% | 1.54 |
| CCCCCCC(CCCCCC)COC(=O)CCCCCN(CCCC)C(=O)OCCN(CCOC(=O)N(CCCC)CCCCCC(=O)OCC(CCCCCC)CCCCCC)CCN(CC)CC [Example 47, Bis(2-hexyloctyl) 7,17-dibutyl-12-(2-(diethylamino)ethyl)-8,16-dioxo-9,15-dioxa-7,12,17-triazatricosanedioate] | 114 nm | 91% | 1.46 |

Source: US20250345459A1, “COMPOUND OR SALT THEREOF, LIPID COMPOSITION, PHARMACEUTICAL COMPOSITION, AND DELIVERY CARRIER” (FUJIFILM Corporation, priority 2023, published 2025)
